The source made the active and inactive calls.
Key:
[1] = alpha-synuclein stem-loop luciferase translation blockers – H4 neuroglioma cells, luminescence, confirmation (AID 1988); type: functional, cell-based
[2] = alpha-synuclein stem-loop translation blockers – luminescence, H4 neuroglioblastoma cells, dose confirmation, confirmation (AID 2454); type: functional, cell-based;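 also: H4 neuroglioblastoma cells carrying an alpha-synuclein 5'UTR luciferase reporter; potency for inhibition of the luciferase signal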
cells [3] = type: functional, cell-based
BJ [4] = test: BJ-TERT-LT-ST fibroblast viability loss – cell-based, RAS-independent, luminescence, dose response (AID 1935); type: functional; settings: Homo sapiens;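 also: BJ fibroblasts immortalized with TERT plus LT and ST oncogenes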
[5] = DRD fibroblast viability loss – cell-based, non-viral oncogenic, luminescence, dose response (AID 1934); type: functional; settings: Homo sapiens
[6] = luciferase reporter signal suppression in cells – H4 neuroglioma cells, luminescence, dose response (AID 1990); type: functional, cell-based
BJ [7] = test: cells; type: functional, cell-based; settings: Homo sapiens
[8] = luciferase reporter signal reduction – luminescence, H4-C neuroglioblastoma cells, dose response (AID 2458); type: functional, cell-based;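 also: H4 neuroglioblastoma cells stably carrying a luciferase reporter gene fusion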
[9] = Luminescence Cell-Based Dose Response HTS to Identify Inhibitors of 5'UTR Stem-Loop Driven Prion Protein mRNA Translation in H4 Neuroglioblastoma Cells. [Related pubchem assays: 1827 (Project Summary), 1813 (Primary HTS)]; type: functional
BJ [10] = test: BJ-TERT fibroblast viability loss – cell-based, RAS-independent, luminescence, dose response (AID 1933); type: functional; settings: Homo sapiens
Estrogen receptor beta = Estrogen receptor beta (Homo sapiens, UniProt Q92731);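 also: recombinant ER-beta bound to coactivator SRC1 peptide in presence of estradiol agonist; inhibitors block coactivator peptide binding and lower the FRET signal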
Estrogen receptor = molecular target: T1, Estrogen receptor (Homo sapiens, UniProt P03372);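 also: potency for inhibiting coactivator peptide recruitment to the receptor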
T1 sequence (P03372 whole entry): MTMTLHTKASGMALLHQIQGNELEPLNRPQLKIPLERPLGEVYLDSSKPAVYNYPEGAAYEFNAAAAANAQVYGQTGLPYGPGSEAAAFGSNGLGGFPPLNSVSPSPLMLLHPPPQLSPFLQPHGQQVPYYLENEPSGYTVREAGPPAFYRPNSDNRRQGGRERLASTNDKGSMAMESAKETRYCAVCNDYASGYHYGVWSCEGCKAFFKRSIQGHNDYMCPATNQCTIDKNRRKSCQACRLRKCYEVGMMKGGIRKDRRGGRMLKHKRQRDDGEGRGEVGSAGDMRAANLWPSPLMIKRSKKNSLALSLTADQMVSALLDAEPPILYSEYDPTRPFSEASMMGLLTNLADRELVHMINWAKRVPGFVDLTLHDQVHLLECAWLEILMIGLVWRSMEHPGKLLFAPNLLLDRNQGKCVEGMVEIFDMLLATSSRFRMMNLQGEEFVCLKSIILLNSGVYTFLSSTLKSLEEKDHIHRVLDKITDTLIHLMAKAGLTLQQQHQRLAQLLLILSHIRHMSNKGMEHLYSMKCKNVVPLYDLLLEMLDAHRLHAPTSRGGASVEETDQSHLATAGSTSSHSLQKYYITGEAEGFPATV

[11] = molecular target: Melanin-concentrating hormone receptor 1 (Homo sapiens, UniProt Q99705); test: Late-stage fluorescence-based counterscreen for antagonists of the G-protein coupled receptor 7 (GPR7): cell-based dose response assay to identify antagonists of the melanin-concentrating hormone receptor 1 (MCHR1). [Related pubchem assays (depositor defined):AID1861, AID1880, AID1952, AID2148, AID2251, AID2257, AID485339]; type: functional;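 also: stimulated with 30 nM MCH peptide agonist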
[12] = molecular target: Neurotensin receptor type 1 (Homo sapiens, UniProt P30989); type: functional;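 also: Image-based confirmatory dose-response assay measuring agonist activity at NTR1; NTR1-expressing U2OS osteosarcoma cells imaged for beta-arrestin GFP spot formation; agonist potency where compounds increase beta-arrestin recruitment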
Cytochrome P450 3A4 = Cytochrome P450 3A4 (Homo sapiens, UniProt P08684); settings: Potency;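 also: confirmatory qHTS run detecting inhibitors and substrates of CYP3A4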
[13] = A Cell Based Secondary Assay To Explore Cytotoxicity of Compounds that Sensitize Mycobacterium Tuberculosis to Beta-Lactam Antibiotics.; type: functional
[14] = HIV-1 Vif–A3G interaction blockers – biochemical, TR-FRET, GST-Vif 1-94, biotin-A3G peptide, dose response retest, primary screen (AID 1117319); type: functional;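 also: TR-FRET signal of purified GST-Vif binding a biotinylated A3G peptide; inhibitors lower the FRET signal by blocking Vif and A3G binding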
[15] = Luminescence Cell-Based Dose Confirmation HTS to Identify Inhibitors of Platelet Dense Granule Release. [Related pubchem assays: 1663 (Primary HTS), 1678 (Summary of Project)]; type: functional
[16] = microbe, parasite or virus in culture; type: functional; settings: Mycobacterium tuberculosis
[17] = molecular target: T2, Neuropeptide Y receptor type 1 (Homo sapiens, UniProt P25929); type: functional;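 also: HEK293 cells with a CNG channel challenged with NPY then isoproterenol; potency as antagonist that reverses NPY suppression of cAMP signal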
T2 sequence (P25929 whole entry): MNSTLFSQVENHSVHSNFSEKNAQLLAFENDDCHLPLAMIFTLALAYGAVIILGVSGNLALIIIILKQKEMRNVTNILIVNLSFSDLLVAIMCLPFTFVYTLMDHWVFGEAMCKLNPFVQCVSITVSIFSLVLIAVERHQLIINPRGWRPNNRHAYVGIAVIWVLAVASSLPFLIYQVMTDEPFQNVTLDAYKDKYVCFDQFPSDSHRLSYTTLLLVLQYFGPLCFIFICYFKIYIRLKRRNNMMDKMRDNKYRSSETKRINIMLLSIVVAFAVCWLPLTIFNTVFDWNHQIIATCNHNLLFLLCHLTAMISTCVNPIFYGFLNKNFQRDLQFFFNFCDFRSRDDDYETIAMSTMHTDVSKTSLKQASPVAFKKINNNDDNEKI

[18] = molecular target: T3, Neuropeptide Y receptor type 2 (Homo sapiens, UniProt P49146); type: functional, cell-based;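 also: HEK293 cells expressing the receptor and a CNG channel; stimulus was NPY near EC95 followed by isoproterenol to raise cAMP; antagonist potency measured as restoring cAMP signal that NPY suppresses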
T3 sequence (P49146 whole entry): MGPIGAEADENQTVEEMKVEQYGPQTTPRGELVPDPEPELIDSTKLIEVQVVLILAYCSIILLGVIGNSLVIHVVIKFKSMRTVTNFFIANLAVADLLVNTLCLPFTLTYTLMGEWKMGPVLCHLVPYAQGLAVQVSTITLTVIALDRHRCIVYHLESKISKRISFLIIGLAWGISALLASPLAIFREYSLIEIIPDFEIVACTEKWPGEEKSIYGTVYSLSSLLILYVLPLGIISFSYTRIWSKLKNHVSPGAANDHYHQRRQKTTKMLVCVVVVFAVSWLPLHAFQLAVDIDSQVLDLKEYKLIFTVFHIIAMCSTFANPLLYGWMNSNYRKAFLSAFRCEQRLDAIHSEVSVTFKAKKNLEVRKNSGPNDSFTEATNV

[19] = molecular target: Luciferin 4-monooxygenase (Photinus pyralis, UniProt P08659); test: inhibition of purified Photinus pyralis luciferase – biochemical, luminescence, dose response (AID 1891)
Protein Tat = molecular target: T4, Protein Tat (Human immunodeficiency virus type 1 group M subtype B (isolate HXB2)(HIV-1), UniProt P04608); type: functional;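 also: tat binding to TAR RNA read out by fluorescence polarization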
T4 sequence (P04608 whole entry): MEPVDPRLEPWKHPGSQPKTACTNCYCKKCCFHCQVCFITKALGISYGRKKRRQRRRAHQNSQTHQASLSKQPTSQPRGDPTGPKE

[20] = Trypanosoma cruzi growth suppression in host cells – NIH3T3 host cells, beta-gal luminescence, confirmation (AID 2044); type: functional, cell-based;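 also: intracellular parasites grown in NIH/3T3 mouse fibroblasts as host cells; luminescent beta-galactosidase reporter signal from transgenic T. cruzi replicating inside host cells; inhibitors lower the luminescence signal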
cells [21] = test: cells
[22] = NIH3T3 cell viability loss – ATP luminescence, mouse fibroblasts, counter-screen, dose response (AID 2010); type: functional, cell-based;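 also: cells exposed to compound for about 90 hours before reading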
[23] = P. falciparum Dd2 growth inhibitors, dose response, SYBR Green, cherry-picked samples (AID 1159567); type: functional, cell-based
[24] = Dd2 malaria parasite growth inhibition potency – SYBR Green, dry powder samples, dose response (AID 1159566); type: functional, cell-based;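 also: potency for growth inhibition with lower SYBR green DNA signal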
[25] = growth inhibition of yeast DHODH-expressing 3D7 parasites – SYBR Green, dry powder samples, dose response (AID 1159570); type: functional, cell-based;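 also: parasite growth measured after 72 hours of compound exposure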
[26] = growth inhibition of PfATP4-mutant resistant parasites – NITD609-resistant line, SYBR Green, dry powder, dose response (AID 1159571); type: functional, cell-based;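 also: parasites synchronized at ring stage by sorbitol before testing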
[27] = toxicity to human HepG2 hepatoma cells – cell-based, plate reader, dry powder samples, cytotoxicity control, dose response (AID 1159569); type: functional;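 also: inhibitor potency with signal falling toward the positive control level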
[28] = molecular target: Heat shock protein HSP 90-alpha (Homo sapiens, UniProt P07900); type: functional, organism-based

Sequence of Estrogen receptor beta (Q92731 whole entry): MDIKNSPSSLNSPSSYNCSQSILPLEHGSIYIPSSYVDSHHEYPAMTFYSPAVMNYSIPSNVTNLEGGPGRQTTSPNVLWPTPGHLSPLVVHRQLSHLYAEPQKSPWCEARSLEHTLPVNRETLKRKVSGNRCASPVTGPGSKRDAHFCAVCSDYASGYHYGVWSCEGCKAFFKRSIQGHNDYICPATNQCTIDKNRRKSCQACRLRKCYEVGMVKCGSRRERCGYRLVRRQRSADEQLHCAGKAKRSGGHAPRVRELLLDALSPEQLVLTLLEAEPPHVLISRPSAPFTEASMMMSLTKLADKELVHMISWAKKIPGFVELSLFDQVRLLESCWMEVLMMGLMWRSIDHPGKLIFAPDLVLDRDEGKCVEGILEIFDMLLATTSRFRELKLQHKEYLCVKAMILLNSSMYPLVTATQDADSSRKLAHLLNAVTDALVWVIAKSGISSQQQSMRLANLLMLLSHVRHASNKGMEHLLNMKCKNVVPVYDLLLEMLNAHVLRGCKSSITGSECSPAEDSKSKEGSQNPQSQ
Sequence of Luciferin 4-monooxygenase (P08659 whole entry): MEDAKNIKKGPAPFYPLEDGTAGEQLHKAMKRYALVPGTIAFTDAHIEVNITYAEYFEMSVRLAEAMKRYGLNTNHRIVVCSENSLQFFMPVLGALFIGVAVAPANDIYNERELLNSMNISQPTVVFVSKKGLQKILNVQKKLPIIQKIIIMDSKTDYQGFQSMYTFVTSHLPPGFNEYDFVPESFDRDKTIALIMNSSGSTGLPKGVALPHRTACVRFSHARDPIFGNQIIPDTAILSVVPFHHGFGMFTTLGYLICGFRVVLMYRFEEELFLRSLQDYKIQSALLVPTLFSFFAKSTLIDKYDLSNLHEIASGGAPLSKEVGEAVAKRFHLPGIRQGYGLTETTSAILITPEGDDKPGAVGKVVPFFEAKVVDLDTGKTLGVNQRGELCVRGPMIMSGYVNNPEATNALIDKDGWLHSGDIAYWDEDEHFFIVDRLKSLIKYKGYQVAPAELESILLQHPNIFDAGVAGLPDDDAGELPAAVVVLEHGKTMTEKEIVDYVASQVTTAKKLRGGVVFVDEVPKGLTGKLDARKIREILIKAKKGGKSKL
Sequence of Neurotensin receptor type 1 (P30989 whole entry): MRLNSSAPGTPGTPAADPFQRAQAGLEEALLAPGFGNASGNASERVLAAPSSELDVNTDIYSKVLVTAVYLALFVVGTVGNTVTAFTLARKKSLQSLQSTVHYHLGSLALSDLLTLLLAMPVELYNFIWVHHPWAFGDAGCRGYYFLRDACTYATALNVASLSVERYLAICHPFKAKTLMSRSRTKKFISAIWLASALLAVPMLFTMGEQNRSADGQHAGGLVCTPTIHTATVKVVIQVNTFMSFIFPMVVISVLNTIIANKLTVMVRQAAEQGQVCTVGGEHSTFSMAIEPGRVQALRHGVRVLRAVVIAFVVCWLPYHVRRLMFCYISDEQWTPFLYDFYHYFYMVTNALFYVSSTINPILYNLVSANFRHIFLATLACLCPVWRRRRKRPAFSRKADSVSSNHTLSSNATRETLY
Sequence of Melanin-concentrating hormone receptor 1 (Q99705 whole entry): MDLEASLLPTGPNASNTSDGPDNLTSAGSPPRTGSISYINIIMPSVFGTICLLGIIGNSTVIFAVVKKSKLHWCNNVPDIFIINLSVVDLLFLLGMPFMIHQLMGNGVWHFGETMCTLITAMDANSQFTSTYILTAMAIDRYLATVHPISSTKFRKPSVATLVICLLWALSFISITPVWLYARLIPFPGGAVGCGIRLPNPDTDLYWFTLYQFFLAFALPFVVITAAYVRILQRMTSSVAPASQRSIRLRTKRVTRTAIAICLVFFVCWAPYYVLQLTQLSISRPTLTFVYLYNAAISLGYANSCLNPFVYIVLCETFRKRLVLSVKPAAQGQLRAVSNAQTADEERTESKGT
Sequence of Cytochrome P450 3A4 (P08684 whole entry): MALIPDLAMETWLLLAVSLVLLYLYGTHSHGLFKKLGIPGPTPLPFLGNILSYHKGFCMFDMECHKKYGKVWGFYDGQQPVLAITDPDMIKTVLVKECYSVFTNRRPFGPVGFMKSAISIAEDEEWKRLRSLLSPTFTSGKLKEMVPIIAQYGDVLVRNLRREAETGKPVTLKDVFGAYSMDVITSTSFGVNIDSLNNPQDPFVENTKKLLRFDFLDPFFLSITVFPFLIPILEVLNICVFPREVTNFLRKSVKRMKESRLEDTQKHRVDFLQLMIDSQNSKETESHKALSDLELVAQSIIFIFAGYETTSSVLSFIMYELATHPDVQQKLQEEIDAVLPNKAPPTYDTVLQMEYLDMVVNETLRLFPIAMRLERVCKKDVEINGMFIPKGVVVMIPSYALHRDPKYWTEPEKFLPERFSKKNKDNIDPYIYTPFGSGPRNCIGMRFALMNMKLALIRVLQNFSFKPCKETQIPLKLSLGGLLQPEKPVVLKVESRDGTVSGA

## Brc1ccc(C2=Nn3c(nnc3-c3[nH]nc4c3CCC4)SC2)cc1
[1]
  EC50: < 0.1 µM (active)
[2]
  EC50: 1.97 µM (active)
Cells [3]
  EC50: 2.12 µM (active)
BJ [4]
  EC50: 138 µM (inconclusive)
[5]
  EC50: 1.65 µM (active)
[6]
  EC50: 11.9 µM (active)
BJ [7]
  EC50: 43.5 µM (active)
[8]
  EC50: > 3.8 µM (not active)
[9]
  EC50: > 120 µM (not active)
BJ [10]
  EC50: 2.33 µM (active)

## O=C(CCC(=O)Nc1nnc(C2CCCCC2)s1)NCC1CCCO1 (stereo not drawn)
Estrogen receptor beta
  IC50: > 50 µM (not active)
Estrogen receptor
  IC50: > 50 µM (not active)

## CCOc1ccc(Oc2c(Br)cnn(-c3ccc(C(C)C)cc3)c2=O)cc1
[11]
  IC50: 3.1 µM (active)

## CC(C)c1ccc(Nc2nnc(SC3CCOC3=O)s2)cc1 (stereo not drawn)
[12]
  EC50: 7.37 µM (active)

## CCCCCCC1=Cc2cc(OC)c(OC)cc2C(C(C(C)=O)C(=O)OC)O1 (stereo not drawn)
Cytochrome P450 3A4
  AC50: 3.16 µM (inconclusive)

## COC(=O)c1c(CSc2cccc(C)c2)noc1C(=O)NCc1ccco1
[13]
  CC50: > 40 µM (active)

## CCc1cc2c(CN3CCN(CC)CC3)cc(=O)oc2cc1O
[14]
  IC50: > 100 µM (active)

## Cc1nc(N2CCC(C)CC2)c2oc3ccccc3c2n1
[15]
  EC50: > 112 µM (not active)
[16]
  CC50: > 40 µM (active)
[17]
  IC50: 7.23 µM (active)
[18]
  IC50: 5.77 µM (active)
[19]
  EC50: 109 µM (active)

## O=C1NC(=O)C(=CN2CCc3ccccc32)C(=O)N1
Protein Tat
  IC50: > 100 µM (active)

## COc1cc(CN2CCCCC2)ccc1OCc1ccccc1
[20]
  EC50: < 0.1 µM (active)
Cells [21]
  EC50: 0.67 µM (active)
[22]
  EC50: > 60 µM (not active)

## C[C@@H]1CN([C@H](C)CO)S(=O)(=O)c2ccc(-c3cccc(C(=O)N(C)C)c3)cc2O[C@H]1CN(C)Cc1ccc2c(c1)OCO2
[23]
  AC50: 2.57 µM (active)
[24]
  AC50: 1.3 µM (active)
[25]
  AC50: 2.27 µM (active)
[26]
  AC50: 1.51 µM (active)
[27]
  AC50: 64.7 µM (active)

## Cc1sc(NC(=O)c2ccco2)c(C(c2cccnc2)N2CCC(C)CC2)c1C (stereo not drawn)
[20]
  EC50: < 0.1 µM (active)
Cells [21]
  EC50: 0.182 µM (active)
[22]
  EC50: 9.92 µM (active)
[28]
  AC50: 4.94 µM (active)

## O=C(COc1ncnc2cc([N+](=O)[O-])ccc12)NCCc1ccc(Cl)cc1
[20]
  EC50: < 0.1 µM (active)
Cells [21]
  EC50: 0.377 µM (active)
[22]
  EC50: > 30 µM (not active)

— ChEMBL document CHEMBL1201862, “PubChem BioAssay data set” (2004)
